Assays:
[1] = target: T1, [MCL-1]-[compound of formula (I)]-[CRBN/DDB1] complex (Homo sapiens, UniProt Q07820+Q96SW2); assay: AlphaLISA dose response ternary complex formation assay; format: binding; conditions: for EC50: read-out: AlphaLISA dose response Average pEC50 by molecule (converted)
In short: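 EC50 comes from dose–response of AlphaLISA luminescence (excitation 680, emission 615 nm), normalised between DMSO background and an internal positive control, with concentrations past the hook point dropped. Ternary complex formed by mixing bead-bound biotin-hMCL-1 and His-CRBN/DDB1 (protein solutions 40 and 200 nM) with compound in 2% DMSO, 30 min, 25 °C.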

MCL-1 protein = MCL-1 protein (Homo sapiens, UniProt Q07820); assay: OPM-2 cells: MCL-1 protein degradation, Simple Western; format: cell-based; set-up: endogenous in cells; host or cells: OPM-2; conditions: OPM-2 cell line, 6 h treatment, 100 nM compound, vs DMSO
Chain of MCL-1 protein (Q07820 whole entry): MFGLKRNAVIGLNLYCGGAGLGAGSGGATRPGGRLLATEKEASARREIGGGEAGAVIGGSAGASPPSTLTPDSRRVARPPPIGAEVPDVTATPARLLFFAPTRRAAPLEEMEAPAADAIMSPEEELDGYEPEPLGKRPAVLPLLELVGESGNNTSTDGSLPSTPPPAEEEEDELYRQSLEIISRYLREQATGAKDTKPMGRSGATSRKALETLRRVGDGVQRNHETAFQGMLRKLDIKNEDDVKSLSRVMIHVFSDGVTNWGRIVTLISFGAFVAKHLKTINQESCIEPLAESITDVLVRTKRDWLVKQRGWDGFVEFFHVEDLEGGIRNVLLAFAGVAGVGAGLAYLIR
Text: The effect of various compounds of the invention and the reference compounds on MCL-1protein degradation in the OPM-2 cell line was investigated, using the degradation assay protocol below.
OPM-2 cells were maintained in RPMI-1640 medium, supplemented with penicillin/streptomycin and 10% Fetal Bovine Serum (FBS). During the treatment, FBS concentration was reduced to 1%.
Compound stocks were pre-diluted in DMSO and added directly to the cells growth medium (final DMSO concentration: 0.5%).
OPM-2 cells were collected, centrifuged (250 rcf, 5 min), resuspended in a growth medium containing 1% FBS and counted. The cell suspension was then adjusted to 1×10^6 cell/ml using a growth medium containing 1% FBS. Afterwards, 0.5×10^6 cells were seeded on 24-well plates in 0.5 mL of medium per well. Immediately after seeding cells, compounds in appropriate concentrations were added to the cell culture medium.
Following the treatment with the compounds, cells were collected from the plates and suspended in a lysis buffer (2% SDS, 50 mM Tris, pH 8.0, 100 U/ml Pierce Universal Nuclease for Cell Lysis, cOmplete EDTA-free Protease Inhibitor Cocktail) and incubated on ice for 45 min.
The following steps, including sample loading, protein separation, immunoprobing or labelling, washes and detection analysis was performed using Jess from ProteinSimple, an automatic system for analyzing protein levels in cell lysates (12-230 kDa Jess or Wes separation module 8×25 capillaries, protein normalization assay, no. SM-PN01-1). The Protein of Interest was detected using MCL-1 (D35A5) Rabbit monoclonal antibody (Cell Signaling, #5453, LOT: 4). Antibody was diluted in a ratio of 1:100 in Antibody diluent.
[%] of protein reduction is calculated in comparison to the cells treated with DMSO, which stand for 0%.
The results for the 6 h treatment with 100 nM compounds are shown in Table 9, using the following labels: • <20% for 0-19% of MCL-1 protein reduction, • ≥20% for 20-39% of MCL-1 protein reduction, • ≥40% for 40-100% of MCL-1 protein reduction.

[2] = target: T1, [MCL-1]-[compound of formula (I)]-[CRBN/DDB1] complex; assay: HTRF ternary complex assay; format: binding; conditions: ternary complex formation; for EC50: read-out: HTRF ternary complex Average pEC50 by molecule (converted)
Description: The effect of the bifunctional compounds of the invention on the formation of a ternary complex composed of [MCL-1]-[compound of formula (I)]-[CRBN/DDB1] was investigated.
Mix of protein solution were prepared: • 48 nM hMcl-1 and 105.6 nM CRBN was prepared in PPI Europium detection buffer with 2 mM DTT. • Acceptor and donor stock solutions were diluted 100 times in PPI Europium detection buffer. Equal volumes of both reagents were mixed. Finally giving 3 nM of Streptavidin-Eu cryptate […] and 6.67 nM of Anti-6× his-d2 […].
5 μl of protein mix was dispensed to all wells. The tested compounds in dose-response were dispensed onto a white 384-well low volume plate (Greiner, 784075). DMSO was backfilled to all wells, resulting in a final DMSO content of 0.5%. Wells containing only DMSO served as background. Next, 5 μl of solution with donor and acceptor was added to the wells.
The plate was sealed with transparent film and shaken using a VibroTurbulator for 60 see at level 3. The plate was then spun down shortly (10 s, 1000 rcf) and incubated at 25° C. for 180 min.
The read-out was performed with plate reader (Pherastar, BMG Labtech) in time resolved fluorescence mode. Filterset: TR 337 665 620.
The results were analyzed as follows: • 1) an average of fluorescence for background signal was calculated and used as a negative control; • 2) raw fluorescence values for tested compounds were normalized against negative controls; • 3) bell shape curve was fitted to a gaussian distribution using a non-linear least squares Gauss-Newton algorithm; • 4) EC50 and pEC50 values were determined.

MV-4-11 cells = assay: Cell viability assay (CellTiter-Glo), MV-4-11; format: cell-based; conditions: 1% FBS; for IC50: Homo sapiens, MV4-11, 24 hours incubation, read-out: Average pIC50 by molecule MV-4-11 (converted)
In short: (§1)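 OPM-2, MV-4-11 and ARH-77 cells were grown in medium with 1% FBS and treated with compound in 1/3 dilutions from 30 uM (9–12 points, 0.5% DMSO). Viability was read by CellTiter-Glo luminescence after 24 hours and normalized to DMSO control.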

ARH-77 cells = assay: Cell viability assay (CellTiter-Glo), ARH-77; format: cell-based; conditions: 1% FBS; for IC50: Homo sapiens, ARH-77, 24 hours incubation, read-out: Average pIC50 by molecule ARH-77 (converted)
In short: as §1

T1 sequence (Q07820 whole entry): as above
T1 sequence (Q96SW2 whole entry): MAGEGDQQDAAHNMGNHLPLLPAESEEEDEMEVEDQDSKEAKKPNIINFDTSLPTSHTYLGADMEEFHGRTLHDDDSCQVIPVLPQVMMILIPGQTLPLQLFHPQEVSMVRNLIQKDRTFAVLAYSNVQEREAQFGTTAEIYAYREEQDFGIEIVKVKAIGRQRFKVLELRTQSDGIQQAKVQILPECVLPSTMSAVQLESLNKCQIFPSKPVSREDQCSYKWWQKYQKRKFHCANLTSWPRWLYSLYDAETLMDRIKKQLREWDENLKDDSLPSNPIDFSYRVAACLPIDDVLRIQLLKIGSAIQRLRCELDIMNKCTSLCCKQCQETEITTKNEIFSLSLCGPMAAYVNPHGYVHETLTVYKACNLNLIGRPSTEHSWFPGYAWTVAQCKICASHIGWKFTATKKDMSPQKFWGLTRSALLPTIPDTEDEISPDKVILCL
T1 sequence (Q16531 whole entry partner): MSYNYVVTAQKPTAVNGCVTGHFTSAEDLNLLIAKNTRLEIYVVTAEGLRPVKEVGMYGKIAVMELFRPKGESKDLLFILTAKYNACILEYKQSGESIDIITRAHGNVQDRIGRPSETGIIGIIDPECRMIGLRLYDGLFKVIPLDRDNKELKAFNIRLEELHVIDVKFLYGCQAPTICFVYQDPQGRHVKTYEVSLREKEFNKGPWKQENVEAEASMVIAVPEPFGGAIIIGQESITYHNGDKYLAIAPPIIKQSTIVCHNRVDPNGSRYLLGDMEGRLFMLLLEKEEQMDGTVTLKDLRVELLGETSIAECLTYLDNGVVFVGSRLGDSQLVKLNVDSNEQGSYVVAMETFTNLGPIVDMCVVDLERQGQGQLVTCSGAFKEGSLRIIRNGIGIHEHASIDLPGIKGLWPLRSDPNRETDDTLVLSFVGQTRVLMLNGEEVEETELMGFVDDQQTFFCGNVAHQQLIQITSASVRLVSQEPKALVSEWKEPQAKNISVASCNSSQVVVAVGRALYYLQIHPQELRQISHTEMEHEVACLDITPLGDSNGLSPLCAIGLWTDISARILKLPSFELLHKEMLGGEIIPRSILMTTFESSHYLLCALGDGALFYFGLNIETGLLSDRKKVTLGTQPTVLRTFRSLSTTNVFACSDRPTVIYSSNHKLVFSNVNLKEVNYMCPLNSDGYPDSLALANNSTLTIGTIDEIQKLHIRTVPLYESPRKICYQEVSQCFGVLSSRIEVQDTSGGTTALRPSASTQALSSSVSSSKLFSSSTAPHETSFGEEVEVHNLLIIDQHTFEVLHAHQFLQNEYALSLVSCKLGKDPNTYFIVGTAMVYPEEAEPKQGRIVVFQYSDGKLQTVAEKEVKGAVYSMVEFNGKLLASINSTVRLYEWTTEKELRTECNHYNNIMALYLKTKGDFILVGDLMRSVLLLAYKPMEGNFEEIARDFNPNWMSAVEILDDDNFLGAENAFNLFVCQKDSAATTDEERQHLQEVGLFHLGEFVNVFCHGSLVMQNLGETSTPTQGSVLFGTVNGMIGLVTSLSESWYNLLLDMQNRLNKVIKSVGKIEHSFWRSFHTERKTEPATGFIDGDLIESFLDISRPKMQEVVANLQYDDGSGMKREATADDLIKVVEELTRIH

SMILES | EC50 [1] | Simple Western, % of protein reduction (MCL-1 protein) | EC50 [2] | IC50 (MV-4-11 cells) | AlphaLISA dose response Average pEC50 by molecule [1] | HTRF ternary complex Average pEC50 by molecule [2] | Average pIC50 by molecule MV-4-11 (MV-4-11 cells; 24 hours incubation) | IC50 (ARH-77 cells) | Average pIC50 by molecule ARH-77 (ARH-77 cells; 24 hours incubation)
Cc1nn(C)c(COc2ccc(N3CCN(S(=O)(=O)N(C)C)CC3)cc2)c1-c1cccc2c(CCCOc3cccc4ccccc34)c(C(=O)O)n(CCN3CCN(C(=O)CNc4cccc5c4C(=O)N(C4CCC(=O)NC4=O)C5=O)CC3)c12 (centres unmarked) [Compound 245, 7-(5-((4-(4-(N,N-dimethylsulfamoyl)piperazin-1-yl)phenoxy)methyl)-1,3-dimethyl-1H-pyrazol-4-yl)-1-(2-(4-((2-(2,6-dioxopiperidin-3-yl)-1,3-dioxoisoindolin-4-yl)glycyl)piperazin-1-yl)ethyl)-3-(3-(naphthalen-1-yloxy)propyl)-1H-indole-2-carboxylic acid] | < 1000 nM | ≥20% |  |  |  |  |  |  | 
Cc1c(-c2c(-c3ccc(F)o3)sc3ncnc(O[C@H](Cc4ccccc4OCc4ccnn4CC(F)(F)F)C(=O)NS(=O)(=O)CCNC(=O)CCOCCOCCNc4cccc5c4C(=O)N(C4CCC(=O)NC4=O)C5=O)c23)ccc(OCCN2CCN(C)CC2)c1Cl (stereo partly drawn) [Compound 260, (2R)-2-[(5-{3-chloro-2-methyl-4-[2-(4-methylpiperazin-1-yl)ethoxy]phenyl}-6-(5-fluorofuran-2-yl)thieno[2,3-d]pyrimidin-4-yl)oxy]-N-(2-{3-[2-(2-{[2-(2,6-dioxopiperidin-3-yl)-1,3-dioxo-2,3-dihydro-1H-isoindol-4-yl]amino}ethoxy)ethoxy]propanamido}ethanesulfonyl)-3-(2-{[1-(2,2,2-trifluoroethyl)-1H-pyrazol-5-yl]methoxy}phenyl)propanamide] |  | ≥20% |  |  |  |  |  |  | 
Cc1nn(C)c(C)c1-c1c(Cl)ccc2c(CCCOc3cccc4cc(F)ccc34)c(C(=O)O)n(CCN3CCC(Nc4cccc5c4C(=O)N(C4CCC(=O)NC4=O)C5=O)CC3)c12 (centres unmarked) [Compound 308] | < 100 nM |  | < 100 nM | ≤ 316 nM |  |  |  | > 3160 nM | 
Cc1nn(C)c(C)c1-c1c(Cl)ccc2c(CCCOc3cccc4cc(F)ccc34)c(C(=O)O)n(CCN3CCN(C(=O)Cn4c(C)nc5c(C(=O)NC6CCC(=O)NC6=O)ccc(C)c54)CC3)c12 (centres unmarked) [Compound 270, 6-Chloro-1-{2-[4-(2-{4-[(2,6-dioxopiperidin-3-yl)carbamoyl]-2,7-dimethyl-1H-1,3-benzodiazol-1-yl}acetyl)piperazin-1-yl]ethyl}-3-{3-[(6-fluoronaphthalen-1-yl)oxy]propyl}-7-(1,3,5-trimethyl-1H-pyrazol-4-yl)-1H-indole-2-carboxylic acid] | < 100 nM |  | < 10 nM | ≤ 100 nM |  |  |  | > 10000 nM | 
Cc1nc2c(C(=O)NC3CCC(=O)NC3=O)c(OCC(=O)N3CCN(CCn4c(C(=O)O)c(CCCOc5cccc6ccccc56)c5ccc(Cl)c(-c6c(C)nn(C)c6C)c54)CC3)ccc2[nH]1 (centres unmarked) [Compound 264, 6-chloro-1-(2-(4-(2-((4-((2,6-dioxopiperidin-3-yl)carbamoyl)-2-methyl-1H-benzo[d]imidazol-5-yl)oxy)acetyl)piperazin-1-yl)ethyl)-3-(3-(naphthalen-1-yloxy)propyl)-7-(1,3,5-trimethyl-1H-pyrazol-4-yl)-1H-indole-2-carboxylic acid] |  | ≥20% |  |  |  |  |  |  | 

Further lines, with some results ahead:

EC50 [1] | Simple Western, % of protein reduction (MCL-1 protein) | EC50 [2] | IC50 (MV-4-11 cells) | AlphaLISA dose response Average pEC50 by molecule [1] | HTRF ternary complex Average pEC50 by molecule [2] | Average pIC50 by molecule MV-4-11 (MV-4-11 cells; 24 hours incubation) | SMILES | IC50 (ARH-77 cells) | Average pIC50 by molecule ARH-77 (ARH-77 cells; 24 hours incubation)
< 100 nM |  | < 10 nM | ≤ 316 nM |  |  |  | Cc1nn(C)c(C)c1-c1c(Cl)ccc2c(CCCOc3cccc4cc(F)ccc34)c(C(=O)O)n(CCCCN(C)C(=O)COc3cccc4c3CN(C3CCC(=O)NC3=O)C4=O)c12 (centres unmarked) [Compound 326, 6-chloro-1-[4-(2-{[2-(2,6-dioxopiperidin-3-yl)-1-oxo-2,3-dihydro-1H-isoindol-4-yl]oxy}-N-methylacetamido)butyl]-3-{3-[(6-fluoronaphthalen-1-yl)oxy]propyl}-7-(1,3,5-trimethyl-1H-pyrazol-4-yl)-1H-indole-2-carboxylic acid] | > 10000 nM | 
< 100 nM |  | < 10 nM | ≤ 100 nM |  |  |  | Cc1nn(C)c(C)c1-c1c(Cl)ccc2c(CCCOc3cccc4cc(F)ccc34)c(C(=O)O)n(CCN(C)CCN(C)C(=O)COc3cccc4c3CN(C3CCC(=O)NC3=O)C4=O)c12 (centres unmarked) [Compound 327, 6-Chloro-1-(2-((2-(2-((2-(2,6-dioxopiperidin-3-yl)-1-oxoisoindolin-4-yl)oxy)-N-methylacetamido)ethyl)(methyl)amino)ethyl)-3-(3-((6-fluoronaphthalen-1-yl)oxy)propyl)-7-(1,3,5-trimethyl-1H-pyrazol-4-yl)-1H-indole-2-carboxylic acid] | > 10000 nM | 
 |  |  |  | >7 | >7 | ≥7.5 | Cc1nn(C)c(C)c1-c1c(Cl)ccc2c(CCCOc3cccc4cc(F)ccc34)c(C(=O)O)n(CCN3CCN(C(=O)COc4cccc5c4CN(C4CCC(=O)NC4=O)C5=O)CC3)c12 (atropisomer, axis not shown; (Sa)) [Compound 295, (Sa)-6-Chloro-1-(2-(4-(2-((2-(2,6-dioxopiperidin-3-yl)-1-oxoisoindolin-4-yl)oxy)acetyl)piperazin-1-yl)ethyl)-3-(3-((6-fluoronaphthalen-1-yl)oxy)propyl)-7-(1,3,5-trimethyl-1H-pyrazol-4-yl)-1H-indole-2-carboxylic acid] |  | <5.0
< 100 nM |  | < 100 nM | ≤ 100 nM |  |  |  | Cc1nn(C)c(C)c1-c1c(Cl)ccc2c(CCCOc3cccc4ccc(F)cc34)c(C(=O)O)n(CCN3CCN(C(=O)COc4cccc5c4CN(C4CCC(=O)NC4=O)C5=O)CC3)c12 (centres unmarked) [Compound 354, 6-Chloro-1-(2-(4-(2-((2-(2,6-dioxopiperidin-3-yl)-1-oxoisoindolin-4-yl)oxy)acetyl)piperazin-1-yl)ethyl)-3-(3-((7-fluoronaphthalen-1-yl)oxy)propyl)-7-(1,3,5-trimethyl-1H-pyrazol-4-yl)-1H-indole-2-carboxylic acid] | > 10000 nM | 
< 100 nM |  | < 100 nM | ≤ 10000 nM |  |  |  | Cc1nn(C)c(C)c1-c1c(Cl)ccc2c(CCCOc3cccc4ccccc34)c(C(=O)O)n(CCN3CCC(NC(=O)COc4cccc5c4CN(C4CCC(=O)NC4=O)C5=O)CC3)c12 (centres unmarked) [Compound 221, 6-chloro-1-{2-[4-(2-{[2-(2,6-dioxopiperidin-3-yl)-1-oxo-2,3-dihydro-1H-isoindol-4-yl]oxy}acetamido)piperidin-1-yl]ethyl}-3-[3-(naphthalen-1-yloxy)propyl]-7-(1,3,5-trimethyl-1H-pyrazol-4-yl)-1H-indole-2-carboxylic acid] | > 31600 nM | 
